From patent US9297048B2, “Antibiotic resistance profile for Neisseria gonorrhoeae and use of same in diagnosis and treatment of gonorrhea” (Medical Diagnostic Laboratories, LLC, priority 2010, dated 2016)
Where two headings read alike, the source gives them in different places.

Experiments:
[1] = system: Neisseria gonorrhoeae from clinical sample 2; test: Antibiotic resistance panel assay on cervicovaginal swab; settings: mutations in penA, gyrA, ponA, parC, porB, mtrR, rpsJ
Text: (§10) Cervicovaginal swabs were obtained using OneSwab® technology.

[2] = system: Neisseria gonorrhoeae strain ATCC 27628; test: Neisseria gonorrhoeae antibiotic resistance panel assay (multiplex PCR + allele-specific primer extension); settings: no mutations/genetic markers detected
Text: (§1) FIG. 1 is a flow chart summarizing the overall steps for our antibiotic resistance assay. Note that the assay involves multiplex PCRs, followed by allele-specific primer extensions and detection means (e.g., capillary electrophoresis, gel electrophoresis or DNA micro array).
(§2) DNA was isolated from either cells obtained from ATCC or clinical samples (e.g., cervical swab) using standard protocols (i.e., guanidine thiocyanate extraction). Multiplex PCR primers were designed using Beacon Designer software v5.0 (Premier Biosoft, CA). The choice of primers was determined using several parameters including primer length, primer melting temperature, primer annealing temperature and GC content. These primers were selected to avoid hairpin and primer-dimer formation (i.e., avoid possible non-specific hybridization). In our assay, we performed four (4) multiplex PCR. This permits a rapid amplification of genes via multiplex PCRs that lack interference.
(§3) Using the selected primers (Example 4), we performed multiplex allele-specific primer extension reactions. The allele-specific primer extension reaction was performed in a single vessel, which contained a total volume of 20 μl. The multiplex allele-specific reactions contained 1×PCR buffer (Invitrogen, CA), 1.25 mM MgCl2, 100 nM of each primer, 5 μM dATP, dTTP, dGTP (Invitrogen, CA), 5 μM biotin-dCTP (Invitrogen, CA), 1 U of Tsp DNA polymerase (Invitrogen, CA), and 5 μl of purified multiplex PCR products from all four (4) multiplex PCRs as templates.
(§4) Thermal cycling conditions for extension reactions were performed in a Biometra 3.0 PCR System (Biometra, Germany) programmed for an initial cycle of 1 min at 95° C. followed by 35 cycles of 30 sec at 95° C., 30 sec at 55° C., and 30 sec at 72° C. A final 10 min extension step was performed at 72° C.
(§5) Detection of allele-specific extended primers is indicative of the presence of SNP in the genes examined. Detection of allele-specific extended primers can be achieved by several methodologies. This includes gel electrophoresis, capillary electrophoresis, as well as DNA microarray. In this particular example, we illustrated the use of a DNA microarray. The working principle of a DNA microarray involves the use of microspheres to hybridize and sort out the allele-specific extended primers, and followed by their subsequent detection using an array reader. The presence of fluorescence is indicative of the presence of an allele-specific extended primer, which in turn is indicative of the presence of a SNP in the gene.
(§6) Extended allele-specific primer hybridizations were performed using oligonucleotide-labeled xMAP flow cytometric microspheres (Luminex Corp, TX) in a hybridization buffer containing 0.2 M NaCl, 0.08% sodium lauroylsarcosine, 0.1 M Tris-HCl, pH 8.0, and 4 mM EDTA pH 8.0. Reactions were carried out in a Biometra 3.0 PCR System (Biometra, Germany) programmed for a 3 min melting at 95° C. and a 15 min hybridization at 37° C.
(§7) Sorting of allele-specific extended primers hybridized to xMAP microspheres was performed using a Bio-Plex 200 (Bio-Rad, CA) flow cytometry instrument.
(§8) 1 μl Streptavidin R-phycoerythrin conjugate (SAPE) and 250 μl 1×NaCl hybridization buffer was added to each sorted xMAP microsphere. Microspheres hybridized to allele-specific extended primers containing biotin-dCTP fluoresce and were detected using the Bio-Plex 200 array reader.
(§9) Using our antibiotic resistance panel assay, we examined the antibiotic resistance profile in these six (6) Neisseria gonorrhoeae strains. The results of the panel assay are presented in graphical format which includes 30 genetic markers (i.e., 28 point mutations in eight (8) chromosomal genes in Neisseria gonorrhoeae, two (2) plasmid genes, as well as 17 alleles in controls). Normal alleles are shown by white bars, mutant alleles, confirming resistance, are shown by black bars (See, FIGS. 3-8). […]

[3] = system: Neisseria gonorrhoeae strain ATCC 31426; test: as above; settings: concluded from mutations/genetic markers detected
Text: as §1, §2, §3, §4, §5, §6, §7, §8, §9

[4] = system: Neisseria gonorrhoeae strain ATCC 19424; test: as above; settings: no mutations/genetic markers detected
Text: as §1, §2, §3, §4, §5, §6, §7, §8, §9

[5] = system: Neisseria gonorrhoeae strain ATCC 49981; test: as above; settings: concluded from mutations/genetic markers detected
Text: as §1, §2, §3, §4, §5, §6, §7, §8, §9

[6] = system: Neisseria gonorrhoeae from clinical sample 1; test: Antibiotic resistance panel assay on cervicovaginal swab; settings: mutations in penA, ponA, porB, mtrR, rpsJ
Text: as §10
The presence of Neisseria gonorrhoeae in all three (3) clinical samples were confirmed using our panel assay in which porA was used as a Neisseria gonorrhoeae species-specific marker.

[7] = system: Neisseria gonorrhoeae isolates containing mosaic penA; settings: cited from earlier work
[8] = system: Neisseria gonorrhoeae strain ATCC 31953; test: Neisseria gonorrhoeae antibiotic resistance panel assay (multiplex PCR + allele-specific primer extension); settings: concluded from mutations/genetic markers detected
Text: as §1, §2, §3, §4, §5, §6, §7, §8, §9

[9] = system: Neisseria gonorrhoeae from clinical sample 3; test: Antibiotic resistance panel assay on cervicovaginal swab; settings: mutations in penA and rpsJ
[10] = system: Neisseria gonorrhoeae strain ATCC 49226; test: Neisseria gonorrhoeae antibiotic resistance panel assay (multiplex PCR + allele-specific primer extension); settings: concluded from mutations/genetic markers detected
Text: as §1, §2, §3, §4, §5, §6, §7, §8, §9

Molecule	level of resistance implied by panel assay [1]	Antibiotic Resistance Profile Using our Assay [2]	Antibiotic Resistance Profile Using our Assay [3]	Antibiotic Resistance Profile Using our Assay [4]	Antibiotic Resistance Profile Using our Assay [5]	level of antibiotic resistance implied by panel assay [6]	MICs ([7]; three of five mosaic penA isolates containing the G545S C-terminal mutation)	MICs ([7]; two mosaic penA isolates without the G545S C-terminal mutation)	Antibiotic Resistance Profile Using our Assay [8]	level of resistance implied by panel assay [9]	Antibiotic Resistance Profile Using our Assay [10]
CC[C@H]1OC(=O)[C@H](C)[C@@H](O[C@H]2C[C@@](C)(OC)[C@@H](O)[C@H](C)O2)[C@H](C)[C@@H](O[C@@H]2O[C@H](C)C[C@H](N(C)C)[C@H]2O)[C@](C)(O)C[C@@H](C)CN(C)[C@H](C)[C@@H](O)[C@]1(C)O [azithromycin]	intermediate level of resistance	susceptible	resistant	susceptible	resistant	intermediate level of antibiotic resistance					
CO/N=C(\C(=O)N[C@@H]1C(=O)N2C(C(=O)O)=C(CSc3nc(=O)c(=O)[nH]n3C)CS[C@H]12)c1csc(N)n1 [ceftriaxone]							elevated MICs	wild-type MICs			
O=C(O)c1cn(C2CC2)c2cc(N3CCNCC3)c(F)cc2c1=O [ciprofloxacin]		susceptible	resistant	susceptible	resistant				resistant		
CN[C@@H]1[C@H](O)[C@H](NC)[C@H]2O[C@@]3(O)C(=O)C[C@@H](C)O[C@H]3O[C@@H]2[C@H]1O [spectinomycin]		susceptible		susceptible							
penicillin	high level of resistance	susceptible	resistant	susceptible	resistant	intermediate level of antibiotic resistance				low level of resistance	resistant
